Measurements: patent US8592172B2, “Bioluminescent assays using cyanobenzothiazole compounds” (Promega Corporation, priority 2010, dated 2013)

What was measured:
[1] = system: UGT isozymes; details: UGT isozymes currently reported in the literature; cited from earlier work
[2] = molecular target: T1, glutathione S-transferase isoenzyme A1-1 (GST A1-1) (Homo sapiens, UniProt P08263); assay: Utilization of benzothiazole substrate by GST A1-1; type: biochemical; details: 55 minutes at room temperature
T1 sequence (P08263 1-222): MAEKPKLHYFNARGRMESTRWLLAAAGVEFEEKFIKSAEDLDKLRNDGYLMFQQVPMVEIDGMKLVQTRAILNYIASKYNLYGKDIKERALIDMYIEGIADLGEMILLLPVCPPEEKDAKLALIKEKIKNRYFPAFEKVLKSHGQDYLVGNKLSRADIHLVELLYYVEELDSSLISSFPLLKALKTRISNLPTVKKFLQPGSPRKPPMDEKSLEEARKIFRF
Method: (§1) Compound 934-37 was dissolved in DMSO to produce a solution approximately 1 mg/mL. This solution was diluted 1:100 (v/v) into 50 mM HEPES buffer pH 7.5 to produce a substrate solution (approximately 10 μg/ml). Twenty μL of this solution was placed in 10 wells of a 96 well, white luminometer plate (Promega part Z3291), 20 μL of a 1:3.1 dilution of the substrate (approximately 3.2 μg/ml) was placed into another 10 wells in the luminometer plate.
(§2) D-Cysteine, 4 mg (Sigma Chemical Corp.; C8005-1g, 017K1034) was dissolved into 1 mL of 50 mM HEPES buffer pH 7.5, then 4 μL added to 4 of the wells containing the substrate solution and 4 of the wells with diluted substrate solution to convert compound 934-37 to the corresponding luciferin derivative. The structures of these compounds are shown below.
A sample of glutathione S-transferase isoenzyme A1-1 (GST A1-1) (1.2 mg/mL) and 100 μL of 100 mM glutathione in water was diluted into 5 mL of 50 mM HEPES pH 7.5, then 25 μL added to the plate as follows: 2 wells with unconverted, concentrated compound 934-37; 2 wells with concentrated and converted compound 934-37; 2 wells with unconverted, diluted compound 934-37; and 2 of the wells with converted, diluted compound 934-37.
(§3) Glutathione (100 μL of 100 mM glutathione) had been diluted to 5 mL with 50 mM HEPES buffer pH 7.5, then 25 μL added to the remaining wells of converted and unconverted compound 934-37 in concentrated and diluted solution.
(§4) After 55 minutes at room temperature, 4 μL of the D-cysteine solution above was added to all wells that had not received cysteine before, then 50 μL of P450-Glo LDR was added. The plate was then placed into a GloMax luminometer (Promega Corp.), and the bioluminescence measured after 15 minutes of incubation. The values obtained were averaged, and the average value of the bioluminescence produced from the wells with no enzyme were then subtracted from the average of the bioluminescence produced in the wells with enzyme.

[3] = molecular target: T2, GST M1-1 (Homo sapiens, UniProt P09488); assay: Utilization of benzothiazole substrate by GST M1-1; type: biochemical; details: 55 minutes at room temperature
T2 sequence (P09488 2-218 limits assumed): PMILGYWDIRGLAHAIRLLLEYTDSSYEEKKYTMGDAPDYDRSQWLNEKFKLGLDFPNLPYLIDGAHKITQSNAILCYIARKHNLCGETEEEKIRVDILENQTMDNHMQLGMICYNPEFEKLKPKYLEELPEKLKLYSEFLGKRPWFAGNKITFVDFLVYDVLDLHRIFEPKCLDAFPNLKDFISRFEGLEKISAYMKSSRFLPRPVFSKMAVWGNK
Method: as §1, §2
A sample of GST M1-1 (1.2 mg/mL) and 100 μL of 100 mM glutathione was diluted into 5 mL of 50 mM HEPES pH 7.5, then 25 μL added to: two of the wells with unconverted, concentrated compound 934-37; 2 wells with concentrated and converted compound 934-37; and two of the wells with unconverted, diluted compound 934-37 and 2 of the wells with converted, diluted compound 934-37.
as §3, §4

[4] = molecular target: T3, UGT 1A9 (Homo sapiens, UniProt O60656); assay: Recombinant UGT panel, substrate utilization; type: biochemical; details: 2 hour incubation at 37° C., recombinant Supersomes, background corrected
T3 construct: purchased BD Gentest; host or cells: insect cells (microsomes)
T3 sequence (O60656 26-530): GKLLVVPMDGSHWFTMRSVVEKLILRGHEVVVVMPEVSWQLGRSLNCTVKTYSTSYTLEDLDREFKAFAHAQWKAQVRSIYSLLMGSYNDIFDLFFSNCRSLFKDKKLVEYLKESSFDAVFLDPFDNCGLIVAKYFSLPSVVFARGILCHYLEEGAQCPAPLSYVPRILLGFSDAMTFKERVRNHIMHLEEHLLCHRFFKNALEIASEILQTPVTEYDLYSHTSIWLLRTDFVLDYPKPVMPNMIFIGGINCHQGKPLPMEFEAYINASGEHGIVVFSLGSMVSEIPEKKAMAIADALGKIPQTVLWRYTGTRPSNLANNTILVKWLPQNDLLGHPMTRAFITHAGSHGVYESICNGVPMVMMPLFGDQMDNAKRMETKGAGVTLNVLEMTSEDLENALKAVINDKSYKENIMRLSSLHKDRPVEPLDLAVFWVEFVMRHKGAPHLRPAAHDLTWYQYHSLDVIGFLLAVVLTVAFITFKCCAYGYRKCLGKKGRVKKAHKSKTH
Method: (§5) During this incubation, the cysteine reacts with the cyanobenzathiozole substrate to yield a D-luciferin derivative. […] Therefore, activity of the UGT enzyme can be measured by analyzing the difference (lower or no output) in relative light units (RLU) of a sample in which glucuronidation occurs compared to a sample that was run under the same conditions with no added UDPGA cofactor.
(§6) In this example, a series of 12 recombinant UGTs expressed in insect microsomes (Supersomes™, BD Gentest™), as well as the control microsomes not expressing the UGT enzyme, were incubated with compound 3138, compound 3478, or compound 3165 as substrates, with or without the UDPGA co-factor.
(§7) After addition of a luciferin detection reagent (LDR) containing D-cysteine, both the substrate and the product were converted to D-luciferins (compound 3478 is already a luciferin derivative before addition of the LDR).
(§8) Reactions were assembled in a white, 96-well plate. Each well contained 20 μL of reaction mixture comprised of 100 mM TES, pH 7.5, 16 mM MgCl2, 50 μg/mL alamethicin (Sigma), 60 μM compound 3138 or compound 3478, and 0.4 mg/mL of control or recombinant UGT membranes. The reactions were initiated by addition of 20 μL of water or 8 mM triammonium UDPGA (Sigma) to each well. The plate was mixed, sealed, and incubated in a 37° C. water bath for 2 hours. After the incubation, 40 μL P450-Glo LDR (Promega) with 20 mM D-cysteine-HCl.H2O (Sigma) was added to each well, the plate was mixed and allowed to incubate at room temperature for 20 minutes. After the incubation was completed, the plate was read on a Veritas™ luminometer (Turner BioSystems, Inc.; Sunnyvale, Calif.).
(§9) For each isozyme, the bioluminescence from the replicates containing UDPGA were subtracted from the average bioluminescence of the replicates without UDPGA. The average Δ RLU value obtained and the standard deviation of the replicates were then divided by the average bioluminescence for samples without UDPGA to obtain the % utilization for each isozyme. The % utilization obtained from the control microsomes was then subtracted from each isozyme to give the background corrected utilization data for those isozymes.

[5] = molecular target: T4, UGT 1A4 (Homo sapiens, UniProt P22310); assay: Recombinant UGT panel, substrate utilization; type: biochemical; details: 2 hour incubation at 37° C., recombinant Supersomes
T4 construct: purchased BD Gentest; host or cells: insect cells (microsomes)
T4 sequence (P22310 29-534): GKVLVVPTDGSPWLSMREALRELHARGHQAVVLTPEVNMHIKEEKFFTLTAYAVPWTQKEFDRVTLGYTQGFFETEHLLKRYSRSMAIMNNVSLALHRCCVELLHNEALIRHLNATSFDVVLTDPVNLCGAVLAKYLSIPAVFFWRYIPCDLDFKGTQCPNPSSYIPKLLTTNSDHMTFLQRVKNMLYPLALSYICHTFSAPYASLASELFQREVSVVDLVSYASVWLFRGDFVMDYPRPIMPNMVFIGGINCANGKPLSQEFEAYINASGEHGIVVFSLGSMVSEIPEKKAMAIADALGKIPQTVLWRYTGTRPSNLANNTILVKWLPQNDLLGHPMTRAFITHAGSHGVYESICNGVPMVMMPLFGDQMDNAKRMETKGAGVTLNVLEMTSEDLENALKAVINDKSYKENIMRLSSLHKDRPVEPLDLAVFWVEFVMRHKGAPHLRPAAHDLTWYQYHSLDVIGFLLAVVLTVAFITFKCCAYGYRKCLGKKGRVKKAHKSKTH
Method: as §5, §6, §7, §8, §9

[6] = molecular target: T5, UGT 1A10 (Homo sapiens, UniProt Q9HAW8); assay: Recombinant UGT panel, substrate utilization; type: biochemical; details: 2 hour incubation at 37° C., recombinant Supersomes, background corrected
T5 construct: purchased BD Gentest; host or cells: insect cells (microsomes)
T5 sequence (Q9HAW8 26-530): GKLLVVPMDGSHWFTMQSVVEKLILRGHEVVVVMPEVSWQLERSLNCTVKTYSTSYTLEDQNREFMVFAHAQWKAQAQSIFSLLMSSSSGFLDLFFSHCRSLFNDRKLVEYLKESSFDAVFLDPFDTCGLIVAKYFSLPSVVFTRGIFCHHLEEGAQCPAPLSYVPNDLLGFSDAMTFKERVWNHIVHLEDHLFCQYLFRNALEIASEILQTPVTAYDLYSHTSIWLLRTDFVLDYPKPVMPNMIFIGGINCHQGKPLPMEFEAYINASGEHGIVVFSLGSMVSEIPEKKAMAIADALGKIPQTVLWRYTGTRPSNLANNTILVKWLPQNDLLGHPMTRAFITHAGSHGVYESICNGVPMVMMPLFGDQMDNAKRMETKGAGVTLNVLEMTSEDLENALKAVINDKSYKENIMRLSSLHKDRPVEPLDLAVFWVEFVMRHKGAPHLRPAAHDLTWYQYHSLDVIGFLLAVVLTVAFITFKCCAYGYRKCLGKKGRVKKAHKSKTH
Method: as §5, §6, §7, §8, §9

[7] = molecular target: T6, UGT 1A8 (Homo sapiens, UniProt Q9HAW9); assay: Recombinant UGT panel, substrate utilization; type: biochemical; details: 2 hour incubation at 37° C., recombinant Supersomes, background corrected
T6 construct: purchased BD Gentest; host or cells: insect cells (microsomes)
T6 sequence (Q9HAW9 26-530): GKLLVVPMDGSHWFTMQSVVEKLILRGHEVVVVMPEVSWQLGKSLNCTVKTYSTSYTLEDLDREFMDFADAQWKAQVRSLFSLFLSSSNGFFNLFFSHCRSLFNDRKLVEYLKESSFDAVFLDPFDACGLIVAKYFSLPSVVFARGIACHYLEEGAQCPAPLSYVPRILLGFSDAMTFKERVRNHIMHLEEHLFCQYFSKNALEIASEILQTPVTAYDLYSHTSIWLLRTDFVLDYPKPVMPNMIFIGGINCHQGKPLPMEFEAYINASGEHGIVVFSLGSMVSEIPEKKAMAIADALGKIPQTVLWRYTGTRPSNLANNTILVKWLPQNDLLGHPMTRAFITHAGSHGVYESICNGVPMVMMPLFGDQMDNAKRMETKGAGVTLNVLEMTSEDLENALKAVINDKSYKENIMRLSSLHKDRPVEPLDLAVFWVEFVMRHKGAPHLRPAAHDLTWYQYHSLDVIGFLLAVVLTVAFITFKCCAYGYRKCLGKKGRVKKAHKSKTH
Method: as §5, §6, §7, §8, §9

[8] = molecular target: T7, UGT 1A6 (Homo sapiens, UniProt P19224); assay: Recombinant UGT panel, substrate utilization; type: biochemical; details: 2 hour incubation at 37° C., recombinant Supersomes
T7 construct: purchased BD Gentest; host or cells: insect cells (microsomes)
T7 sequence (P19224 27-532): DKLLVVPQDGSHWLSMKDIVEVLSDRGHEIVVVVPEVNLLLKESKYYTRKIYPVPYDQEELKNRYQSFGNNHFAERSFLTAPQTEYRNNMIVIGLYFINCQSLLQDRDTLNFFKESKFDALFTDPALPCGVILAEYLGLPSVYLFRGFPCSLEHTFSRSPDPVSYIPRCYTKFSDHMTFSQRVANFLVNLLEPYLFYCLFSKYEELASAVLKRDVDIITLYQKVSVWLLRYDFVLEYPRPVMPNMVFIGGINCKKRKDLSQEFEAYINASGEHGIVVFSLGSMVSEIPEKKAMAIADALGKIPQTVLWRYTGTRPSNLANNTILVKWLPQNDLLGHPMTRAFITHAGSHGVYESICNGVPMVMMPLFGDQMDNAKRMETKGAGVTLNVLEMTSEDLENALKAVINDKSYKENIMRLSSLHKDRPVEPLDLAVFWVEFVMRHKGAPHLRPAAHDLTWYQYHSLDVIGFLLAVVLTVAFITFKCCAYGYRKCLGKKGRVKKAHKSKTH
Method: as §5, §6, §7, §8, §9

[9] = molecular target: T8, UGT 2B4 (Homo sapiens, UniProt P06133); assay: Recombinant UGT panel, substrate utilization; type: biochemical; details: 2 hour incubation at 37° C., recombinant Supersomes
T8 construct: purchased BD Gentest; host or cells: insect cells (microsomes)
T8 sequence (P06133 24-528): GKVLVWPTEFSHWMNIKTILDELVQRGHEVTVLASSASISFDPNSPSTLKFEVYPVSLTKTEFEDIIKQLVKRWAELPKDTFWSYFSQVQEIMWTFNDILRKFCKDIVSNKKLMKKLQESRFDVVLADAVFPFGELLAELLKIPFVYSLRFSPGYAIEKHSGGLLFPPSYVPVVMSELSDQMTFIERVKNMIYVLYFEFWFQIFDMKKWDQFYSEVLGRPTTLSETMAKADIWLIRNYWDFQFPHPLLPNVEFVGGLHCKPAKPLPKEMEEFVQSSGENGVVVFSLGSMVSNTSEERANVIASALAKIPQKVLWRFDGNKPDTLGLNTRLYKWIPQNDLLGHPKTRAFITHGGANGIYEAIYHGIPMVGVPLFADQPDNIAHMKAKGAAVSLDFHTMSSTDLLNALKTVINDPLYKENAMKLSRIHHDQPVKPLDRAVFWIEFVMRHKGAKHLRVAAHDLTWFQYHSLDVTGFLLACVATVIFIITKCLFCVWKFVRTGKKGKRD
Method: as §5, §6, §7, §8, §9

[10] = molecular target: T9, UGT 1A1 (Homo sapiens, UniProt P22309); assay: Recombinant UGT panel, substrate utilization; type: biochemical; details: 2 hour incubation at 37° C., recombinant Supersomes, background corrected
T9 construct: purchased BD Gentest; host or cells: insect cells (microsomes)
T9 sequence (P22309 26-533): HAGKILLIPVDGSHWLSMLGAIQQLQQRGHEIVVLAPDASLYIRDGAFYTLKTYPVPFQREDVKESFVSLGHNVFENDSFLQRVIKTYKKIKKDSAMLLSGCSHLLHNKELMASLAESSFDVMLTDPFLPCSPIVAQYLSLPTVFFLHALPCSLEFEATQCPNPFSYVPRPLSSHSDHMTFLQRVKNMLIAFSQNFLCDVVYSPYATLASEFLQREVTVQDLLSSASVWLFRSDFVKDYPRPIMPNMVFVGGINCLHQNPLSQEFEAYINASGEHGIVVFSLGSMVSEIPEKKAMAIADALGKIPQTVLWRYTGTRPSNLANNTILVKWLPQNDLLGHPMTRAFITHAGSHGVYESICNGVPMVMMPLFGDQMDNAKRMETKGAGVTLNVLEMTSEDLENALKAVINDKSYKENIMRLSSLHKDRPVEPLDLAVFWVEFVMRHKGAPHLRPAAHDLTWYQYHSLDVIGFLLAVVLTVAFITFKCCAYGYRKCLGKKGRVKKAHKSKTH
Method: as §5, §6, §7, §8, §9

[11] = molecular target: UGT 2B7 (Homo sapiens, UniProt P16662); assay: Recombinant UGT panel, substrate utilization; type: biochemical; parameters: purchased BD Gentest; host or cells: insect cells (microsomes); details: 2 hour incubation at 37° C., recombinant Supersomes, background corrected
UGT 2B7, sequence (P16662 24-529): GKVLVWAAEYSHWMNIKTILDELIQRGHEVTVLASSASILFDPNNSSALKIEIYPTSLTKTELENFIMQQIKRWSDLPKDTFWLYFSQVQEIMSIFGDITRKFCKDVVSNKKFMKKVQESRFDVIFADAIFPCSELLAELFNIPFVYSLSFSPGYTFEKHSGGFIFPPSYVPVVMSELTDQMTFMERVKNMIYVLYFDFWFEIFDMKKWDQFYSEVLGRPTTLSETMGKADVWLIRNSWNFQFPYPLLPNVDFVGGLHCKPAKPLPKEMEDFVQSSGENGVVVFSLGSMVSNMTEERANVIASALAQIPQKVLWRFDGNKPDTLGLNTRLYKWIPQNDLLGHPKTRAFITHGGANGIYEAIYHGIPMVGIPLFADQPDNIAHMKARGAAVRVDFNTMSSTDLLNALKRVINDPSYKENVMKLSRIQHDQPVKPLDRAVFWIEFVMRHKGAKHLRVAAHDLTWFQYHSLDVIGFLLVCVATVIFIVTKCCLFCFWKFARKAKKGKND
Method: as §5, §6, §7
Reactions were assembled in a white, 96-well plate. Each well contained 20 μL of reaction mixture comprised of 100 mM TES, pH 7.5, 16 mM MgCl2, 50 μg/mL alamethicin (Sigma), 60 μM compound 3138 or compound 3478, and 0.4 mg/mL of control or recombinant UGT membranes. The reactions were initiated by addition of 20 μL of water or 8 mM triammonium UDPGA (Sigma) to each well. […] After the incubation was completed, the plate was read on a Veritas™ luminometer (Turner BioSystems, Inc.; Sunnyvale, Calif.). […]

[12] = system: CYP450 1A2 activity in human liver microsomes; assay: Human liver microsome assay with compound 3019; details: 1 μg HLM, 3 μM compound 3019, 10 minutes at 37° C.
Method: Equal volumes of P450-Glo LDR with 6.6 mM D-Cysteine was added into the CYP450 reactions.

[13] = concentrated substrate (approximately 10 μg/ml)
[14] = diluted substrate (approximately 3.2 μg/ml)

Structure (SMILES): O=c1cc(C(F)(F)F)c2ccc(O)cc2o1 [7-hydroxy-4-trifluoromethyl coumarin]
- Isozymes Modulated [1]: Substrate for 1A1, 1A3, 1A6, 1A9, 2B7

Structure (SMILES): Cc1cc(S(=O)(=O)Oc2ccc3nc(C#N)sc3c2)ccc1[N+](=O)[O-] [Compound 934-37]
- bioluminescence with GST A1-1 minus no enzyme [2, 13]: 164,400 RLU
- bioluminescence with GST A1-1 minus no enzyme [2, 14]: 195,021 RLU
- bioluminescence with GST M1-1 minus no enzyme [3, 13]: 41,212 RLU
- bioluminescence with GST M1-1 minus no enzyme [3, 14]: 30,428 RLU

Structure (SMILES): Cc1cc(O)cc2sc(C3=NC(C(=O)O)CS3)nc12 (centres unmarked) [Compound 3478]
- % utilization of substrate by UGT 1A9 [4]: ≤ 15%
- utilization of substrate by UGT 1A4 [5]: did not utilize either compound 3138 or 3478 to an appreciable extent
- % utilization of substrate by UGT 1A10 [6]: ≤ 15%
- % utilization of substrate by UGT 1A8 [7]: ≤ 15%
- utilization of substrate by UGT 1A6 [8]: able to utilize compound 3478 to any appreciable extent
- utilization of substrate by UGT 2B4 [9]: did not utilize either compound 3138 or 3478 to an appreciable extent
- % utilization of substrate by UGT 1A1 [10]: ≤ 15%
- % utilization of substrate by UGT 2B7 [11]: ≤ 15%

Structure (SMILES): C=C[C@H]1C[N@@]2CC[C@H]1C[C@@H]2[C@@H](O)c1ccnc2ccc(OC)cc12 [Quinidine]
- Isozymes Modulated [1]: 2B7 and 2B15, others to a lesser extent

Structure (SMILES): O=c1ccc2ccc(O)cc2o1 [Umbelliferne]
- Isozymes Modulated [1]: Substrate of most isozymes

Structure (SMILES): Cc1cc(S(=O)(=O)Oc2ccc3nc(C4=N[C@@H](C(=O)O)CS4)sc3c2)ccc1[N+](=O)[O-] [converted compound 934-37]
- bioluminescence with GST A1-1 minus no enzyme [2, 13]: 6,410 RLU
- bioluminescence with GST A1-1 minus no enzyme [2, 14]: 6,462 RLU
- bioluminescence with GST M1-1 minus no enzyme [3, 13]: 315,759 RLU
- bioluminescence with GST M1-1 minus no enzyme [3, 14]: 213,920 RLU

Structure (SMILES): O=c1cc(-c2ccccc2)oc2c1ccc1ccccc12 [α-naphthoflavone, reference compound]
- inhibition of compound 3019 activity in human liver microsomes [12]: sensitive to inhibition
